Among the test systems are KM12 colon; UACC-62 melanoma; SW-620 colon; SK-OV-3 ovarian; K-562 leukemia; OVCAR-5 ovarian; M14 melanoma; NCI-H226 lung; ACHN renal; LOX IMVI melanoma.
Holding throughout (assay): NCI-60 cell line screen, 48 h

“And” between values parts separate entries of the source, which are not always exact repeats. Equal entries are not always repeated.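 The compound was tested at five concentrations on cells cultured in 96-well plates, with a 48-hour exposure period. GI50 = concentration required for 50% inhibition of growth. TGI denotes the concentration required for complete inhibition of growth.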

Regarding `C=C1C(=O)OC2/C=C(\CO)C(OC(C)=O)CC(O)/C(C)=C/C(OC(=O)C(C)CC)C12` (stereo not drawn), the GI50 is 17.5 µM and 35.2 µM with KM12 colon; 5.62 µM and 36.9 µM in the assay with K-562 leukemia; 38.9 µM and 17 µM in the assay on OVCAR-5 ovarian. The TGI in the assay on KM12 colon was 32.5 µM and > 100 µM; with UACC-62 melanoma it was 32.3 µM and 38 µM; in the assay on SW-620 colon, 24.4 µM and 78 µM; in the assay on SK-OV-3 ovarian it was more than 100 µM; in the assay with K-562 leukemia, 21.4 µM and > 100 µM; with OVCAR-5 ovarian it was > 92.8 µM and 32.2 µM. The TGI in the assay on M14 melanoma is 31.1 µM and 33.3 µM; with NCI-H226 lung, 59.6 µM; in the assay on ACHN renal, 56.7 µM and 72.7 µM; with LOX IMVI melanoma, 29.3 µM and 38.3 µM.

In the case of `COc1cc2c(cc1OC)C1c3ccccc3CCN1CC2` (stereo not drawn), the TGI with KM12 colon, in the assay with UACC-62 melanoma, in the assay with SW-620 colon, in the assay on SK-OV-3 ovarian, with K-562 leukemia and with OVCAR-5 ovarian was more than 100 µM in each case. The TGI is more than 100 µM with M14 melanoma, 96.1 µM with NCI-H226 lung, more than 100 µM with ACHN renal and more than 100 µM in the assay with LOX IMVI melanoma.

Take `C=C(Cl)/C(=C\Cl)CCC(Br)C(C)C` (stereo not drawn): the TGI in the assay on KM12 colon is more than 100 µM; in the assay with UACC-62 melanoma, more than 100 µM; in the assay on SW-620 colon, 37.9 µM; with SK-OV-3 ovarian it was more than 100 µM; with K-562 leukemia it was more than 100 µM; in the assay on OVCAR-5 ovarian, more than 100 µM. Besides, the TGI was more than 100 µM in the assay on M14 melanoma, more than 100 µM in the assay with NCI-H226 lung, more than 100 µM with ACHN renal and 31.4 µM in the assay on LOX IMVI melanoma.

As to `O=C1CCC(=Nc2ccc(Cl)cc2)N1C(=O)COc1ccc(OCC(=O)N2C(=O)CSC2=Nc2ccc(Cl)cc2)cc1`, the TGI with KM12 colon, with UACC-62 melanoma, with SW-620 colon, with SK-OV-3 ovarian, with K-562 leukemia and in the assay on OVCAR-5 ovarian was more than 100 µM each time. Besides, the TGI in the assay on M14 melanoma, with NCI-H226 lung, in the assay on ACHN renal and in the assay with LOX IMVI melanoma was more than 100 µM in each case.

For the molecule `O=C(NC(Cc1c[nH]c2ccccc12)C(=O)O)/C(=C/c1ccccc1O)NC(=O)c1ccccc1` (stereo not drawn), the TGI in the assay with KM12 colon was more than 100 µM; in the assay on UACC-62 melanoma, more than 100 µM; in the assay with SW-620 colon it was more than 100 µM; in the assay on SK-OV-3 ovarian it was 56.7 µM; in the assay on K-562 leukemia, more than 100 µM; with OVCAR-5 ovarian, more than 100 µM. In addition, the TGI with M14 melanoma was more than 100 µM; with NCI-H226 lung, 61.5 µM; with ACHN renal, 33.3 µM; in the assay with LOX IMVI melanoma, more than 100 µM.

On to `CC1(C)O[C@@H]2COC(=O)[C@@H]2O1`, for which the TGI in the assay on KM12 colon, in the assay with UACC-62 melanoma, with SW-620 colon, in the assay on SK-OV-3 ovarian, in the assay with K-562 leukemia and with OVCAR-5 ovarian was more than 100 µM throughout. Moreover, the TGI with M14 melanoma, with NCI-H226 lung, with ACHN renal and with LOX IMVI melanoma was more than 100 µM each time.

On to `CCCCOC(C)(C)/C=C/C(O)[C@](C)(O)[C@H]1[C@H](O)C[C@@]2(C)[C@@H]3CCc4c(cc(OC5OC(CO)C(O)C(O)C5O)c(O)c4C)C3(C)C(=O)C[C@]12C` (stereo partly drawn), for which the TGI in the assay with KM12 colon, in the assay with UACC-62 melanoma, in the assay on SW-620 colon, in the assay on SK-OV-3 ovarian, in the assay on K-562 leukemia and with OVCAR-5 ovarian was more than 100 µM throughout. Moreover, the TGI in the assay with M14 melanoma, with NCI-H226 lung, in the assay on ACHN renal and in the assay on LOX IMVI melanoma was more than 100 µM throughout.

As for `CSCCC(NCc1c(O)ccc2c(-c3ccccc3)cc(=O)oc12)C(=O)O` (stereo not drawn), the TGI in the assay on KM12 colon, in the assay with UACC-62 melanoma, in the assay with SW-620 colon, in the assay on SK-OV-3 ovarian, with K-562 leukemia and in the assay on OVCAR-5 ovarian was more than 100 µM throughout. The TGI in the assay with M14 melanoma, with NCI-H226 lung, in the assay on ACHN renal and in the assay with LOX IMVI melanoma was more than 100 µM each time.

Regarding `CC(CC(C#N)(c1ccccc1)c1ccccc1)N1CCCCC1` (stereo not drawn), the TGI with KM12 colon was 49.2 µM; in the assay on UACC-62 melanoma, 59.1 µM; with SW-620 colon, 49.5 µM; in the assay on SK-OV-3 ovarian, more than 100 µM; in the assay with K-562 leukemia it was 45.5 µM; in the assay with OVCAR-5 ovarian, more than 100 µM. For the same molecule, the TGI in the assay with M14 melanoma is 39.1 µM; in the assay on NCI-H226 lung, 46.4 µM; in the assay on ACHN renal it was more than 100 µM; with LOX IMVI melanoma it was 33.5 µM.

In the case of `O=C1c2ccccc2CN1c1ccc(O)cc1`, the TGI with KM12 colon, in the assay with UACC-62 melanoma, with SW-620 colon, in the assay on SK-OV-3 ovarian, in the assay on K-562 leukemia and in the assay on OVCAR-5 ovarian was more than 100 µM in each case. Besides, the TGI in the assay on M14 melanoma, with NCI-H226 lung, with ACHN renal and in the assay on LOX IMVI melanoma was more than 100 µM throughout.

The values above are taken from PubChem BioAssay (NCI).
